In US20210269447A1, “NOVEL AMINO-IMIDAZOPYRIMIDINE DERIVATIVES AS JANUS KINASE INHIBITORS AND PHARMACEUTICAL USE THEREOF” (LEO Pharma A/S, priority 2018, published 2021):

Experiments:
[1] = biological target: T1, Human baculovirus-expressed Janus kinase (JAK) 1 (Homo sapiens, UniProt P23458); assay: JAK1 kinase assay (HTRF); assay type: biochemical; conditions: catalytic domain, ATP at Km (7 μM), 40 min
T1 construct: JAK1 (aa 850-1154) and TYK2 (aa 871-1187) are expressed with an N-terminally fused GST-tag; GST (N); purchased Carna Biosciences, Inc 08-144; host or cells: baculovirus expression system
Experimental: (§1) Human baculovirus-expressed Janus kinase (JAK) 1, 2, 3 and tyrosin kinase (TYK) 2 were purchased from Carna Biosciences, Inc (#08-144, -045, -046, -147 resp.). All four purified enzymes contain only the catalytic domain. JAK1 (aa 850-1154) and TYK2 (aa 871-1187) are expressed with an N-terminally fused GST-tag, and JAK2 and JAK3 with an N-terminally fused His-tag. Inhibition of phosphorylation of a synthetic peptide was measured in an HTRF-based assay (CisBio #62TKOPEC). First, 75 nL of test compound solution (100% DMSO) was added to a white shallow 384-well plate (NUNC #264706) using a Labcyte ECHO 550 liquid handler. Thereafter, 1 μL of compound dilution buffer (50 mM HEPES, 0.05% bovine serum albumin) and 2 μL of TK solution (TK substrate-biotin in kinase buffer [1× enzymatic buffer from HTRFKinEASE TK kit, 1 mM DTT]) was added. Then, 5 μL kinase-ATP mix (prepared in kinase buffer) was added to the wells and the plates were incubated at RT for 20 (JAK2, 3 and TYK2) to 40 (JAK1) min. For all four kinases a concentration of ATP that corresponded to the Km for ATP was used. The final concentrations of buffers, substrate, kinase and ATP were: JAK1: 50 mM Hepes buffer pH 7.0, 0.01% BSA, 10 mM MgCl2, 1 mM DTT, 7 μM ATP, 50 nM SEB, 1 μM TK Substrate-Biotin and 5 ng JAK1; JAK2: 50 mM Hepes buffer pH 7.0, 0.01% BSA, 5 mM MgCl2, 1 mM DTT, 4 μM ATP, 1 μM TK Substrate-Biotin and 0.1 ng JAK2; JAK3: 50 mM Hepes buffer pH 7.0, 0.01% BSA, 5 mM MgCl2, 1 mM DTT, 2 μM ATP, 1 μM TK Substrate-Biotin and 0.3 ng JAK3; TYK2: 50 mM Hepes buffer pH 7.0, 0.01% BSA, 5 mM MgCl2, 1 mM DTT, 13 μM ATP, 50 nM SEB, 1 μM TK Substrate-Biotin and 0.8 ng TYK2. […] A PerkinElmer Envision reader was used to quantify the HTRF signal using the following filters; 320 nm excitation filter, 665 nm emission filter and a 615 nm 2nd emission filter. A ratio ((665/615)×104) was calculated for each well.

[2] = biological target: T2, Human baculovirus-expressed Janus kinase (JAK) 2 (Homo sapiens, UniProt O60674); assay: JAK2 kinase assay (HTRF); assay type: biochemical; conditions: catalytic domain, ATP at Km (4 μM), 20 min
T2 construct: All four purified enzymes contain only the catalytic domain; His-tag (N); purchased Carna Biosciences, Inc 08-045; host or cells: baculovirus expression system
Experimental: as §1

[3] = biological target: T3, Human baculovirus-expressed Janus kinase (JAK) 3 (Homo sapiens, UniProt P52333); assay: JAK3 kinase assay (HTRF); assay type: biochemical; conditions: catalytic domain, ATP at Km (2 μM), 20 min
T3 construct: All four purified enzymes contain only the catalytic domain; His-tag (N); purchased Carna Biosciences, Inc 08-046; host or cells: baculovirus expression system
Experimental: as §1

[4] = biological target: T4, Human baculovirus-expressed tyrosin kinase (TYK) 2 (Homo sapiens, UniProt P29597); assay: TYK2 kinase assay (HTRF); assay type: biochemical; conditions: catalytic domain, ATP at Km (13 μM), 20 min
T4 construct: JAK1 (aa 850-1154) and TYK2 (aa 871-1187) are expressed with an N-terminally fused GST-tag; GST (N); purchased Carna Biosciences, Inc 08-147; host or cells: baculovirus expression system
T4 sequence (P29597 871-1187): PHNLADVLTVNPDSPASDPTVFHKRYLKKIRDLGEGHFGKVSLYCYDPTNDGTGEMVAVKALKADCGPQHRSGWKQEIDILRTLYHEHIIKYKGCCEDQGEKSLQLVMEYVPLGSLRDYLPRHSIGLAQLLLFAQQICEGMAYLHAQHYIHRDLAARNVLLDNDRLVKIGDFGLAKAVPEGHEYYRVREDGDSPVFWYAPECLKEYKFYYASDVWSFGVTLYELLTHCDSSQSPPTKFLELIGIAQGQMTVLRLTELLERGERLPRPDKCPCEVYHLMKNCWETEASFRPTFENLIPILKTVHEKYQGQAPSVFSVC
Experimental: as §1

STAT5 irfi-bla TF1 cells = assay: STAT5 Assay; assay type: cell-based; conditions: TF-1; stimulated with recombinant human erythropoietin (EPO) 10 ng/mL; beta-lactamase reporter
Experimental: Twenty-five μL of a STAT5 irfi-bla TF1 (Invitrogen #K1219) cell suspension was seeded with a density of about 10,000 cells/well in 384-well Black View-plates (PerkinElmer #6007460) with clear bottom in assay medium (Opti-MEM (Invitrogen #11058-021)+0.5% heat inactivated fetal bovine Serum (Invitrogen #10082-147)+1% non-essential amino acids (Invitrogen #11140-050)+1% sodium pyruvate (Invitrogen #11360-070)+1% penicillin/streptomycin (Invitrogen #15140-122)). The cell plates were incubated overnight in a humidified 37° C. air/CO2 (95%/5%) incubator. The following day, 125 nL of solutions of test compounds and reference compounds were transferred to cell plates using the Labcyte Echo 550 liquid handler. The plates were then incubated for 1 h in a humidified 37° C. air/CO2 (95%/5%) incubator. Hereafter recombinant human erythropoietin (EPO) (Invitrogen #PHC9634) was added to the plates also using the Labcyte Echo 550 to a final concentration of 10 ng/mL. The cells were then incubated for 4½-5 h in a humidified 37° C. air/CO2 (95%/5%) incubator. 8 μL of LiveBLAzer substrate mixture (Invitrogen #K1095) were then added to the assay plates, which were then incubated overnight at RT. Fluorescence was then measured: Excitation: 405 nm; Emission: 460 nm (green channel), Emission: 535 nm (blue channel). Background was subtracted in both emission channels and the ratio 460/535 nm was calculated for each well.

STAT6 bla-RA1 cells = assay: STAT6 Assay; assay type: cell-based; conditions: stimulated with recombinant human interleukin 4 10 ng/mL; CD40 ligand; beta-lactamase reporter
Experimental: Twenty-five μL of a STAT6 bla-RA1 (Invitrogen #K1243) cell suspension was seeded with a density of 30-40,000 cells/well in 384-well Black View-plates (PerkinElmer #6007460) with clear bottom in assay medium (Opti-MEM (Invitrogen #11058-021)+0.5% heat inactivated fetal bovine Serum (Invitrogen #10082-147)+1% non-essential amino acids (Invitrogen #11140-050)+1% sodium pyruvate (Invitrogen #11360-070)+1% penicillin/streptomycin (Invitrogen #15140-122)); containing 550 ng/mL of CD40 ligand (Invitrogen #PHP0025). The cell plates were incubated overnight in a humidified 37° C. air/CO2 (95%/5%) incubator. The following day, 125 nL of solutions of test compounds and reference compounds were transferred to cell plates using the Labcyte Echo 550 liquid handler. The plates were then incubated for 1 h in a humidified 37° C. air/CO2 (95%/5%) incubator. Hereafter recombinant human interleukin 4 (Invitrogen #PHC0045) were added to the plates also using the Labcyte Echo 550 to a final concentration of 10 ng/mL. The cells were then incubated for 4½-5 h in a humidified 37° C. air/CO2 (95/b/5%) incubator. 8 μL of LiveBLAzer substrate mixture (Invitrogen #K1095) were then added to the assay plates, which were incubated overnight at RT. Fluorescence was then measured: Excitation: 405 nm; Emission: 460 nm (green channel), Emission: 535 nm (blue channel). Background was subtracted in both emission channels and the ratio 460/535 nm was calculated for each well.

T2 sequence (O60674 849-1124 limits assumed): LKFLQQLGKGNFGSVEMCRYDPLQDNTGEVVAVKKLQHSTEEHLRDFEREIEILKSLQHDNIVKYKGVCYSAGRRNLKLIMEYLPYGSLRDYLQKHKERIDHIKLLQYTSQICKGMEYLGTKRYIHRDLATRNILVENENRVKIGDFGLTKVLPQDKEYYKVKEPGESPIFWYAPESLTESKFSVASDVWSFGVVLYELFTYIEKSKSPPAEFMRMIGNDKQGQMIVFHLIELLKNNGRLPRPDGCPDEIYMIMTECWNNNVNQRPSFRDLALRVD
T1 sequence (P23458 850-1154): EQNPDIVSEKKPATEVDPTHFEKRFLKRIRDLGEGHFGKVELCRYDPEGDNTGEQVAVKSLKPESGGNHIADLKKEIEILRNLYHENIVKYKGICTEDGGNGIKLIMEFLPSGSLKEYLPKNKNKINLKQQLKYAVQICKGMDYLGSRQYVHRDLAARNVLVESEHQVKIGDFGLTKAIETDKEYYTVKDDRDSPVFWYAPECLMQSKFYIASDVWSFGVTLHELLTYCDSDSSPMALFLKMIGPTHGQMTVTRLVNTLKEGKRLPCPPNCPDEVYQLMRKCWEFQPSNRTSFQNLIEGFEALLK
T3 sequence (P52333 822-1111 limits assumed): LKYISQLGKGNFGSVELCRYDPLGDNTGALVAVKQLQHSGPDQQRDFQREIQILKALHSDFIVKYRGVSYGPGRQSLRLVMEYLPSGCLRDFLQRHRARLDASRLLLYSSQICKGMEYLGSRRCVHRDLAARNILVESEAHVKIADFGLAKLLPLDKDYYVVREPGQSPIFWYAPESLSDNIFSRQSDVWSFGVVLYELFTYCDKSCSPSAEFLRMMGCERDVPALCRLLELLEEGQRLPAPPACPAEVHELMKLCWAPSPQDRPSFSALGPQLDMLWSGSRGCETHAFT

EC50 [1] | EC50 [2] | EC50 [3] | EC50 [4] | EC50 (STAT5 irfi-bla TF1 cells) | EC50 (STAT6 bla-RA1 cells) | SMILES
9 nM | 274 nM | 798 nM | 47 nM | 12800 nM | 213 nM | CNc1ncc2nc(C(C)O)n([C@H]3CC[C@H](CC#N)CC3)c2n1 (mixture of isomers) [Compound 2, 2-[trans-4-[8-(1-Hydroxyethyl)-2-(methylamino)purin-9-yl]cyclohexyl]acetonitrile]
3 nM | 129 nM | 510 nM | 13 nM | 4870 nM | 142 nM | [2H]C([2H])([2H])Nc1ncc2nc([C@@H](C)O)n([C@H]3CC[C@H](CC#N)CC3)c2n1 [Compound 3, 2-[trans-4-[8-[(1R)-1-Hydroxyethyl]-2-(trideuteriomethylamino)purin-9-yl]cyclohexyl]acetonitrile]
5 nM | 157 nM | 602 nM | 19 nM | 5190 nM | 146 nM | CNc1ncc2nc([C@@H](C)O)n([C@H]3CC[C@H](CC#N)CC3)c2n1 [Compound 1, 2-[trans-4-[8-[(1R)-1-Hydroxyethyl]-2-(methylamino)purin-9-yl]cyclohexyl]acetonitrile]
